Results published in patent publication US7767240B2, “Microbiological control in poultry processing” (priority 2001, dated 2010).
Where “and” joins values, the source holds several entries; their conditions need not be identical. Equal entries are not always repeated.

Experiments:
Type in all cases: cell-based
[1] = tested on: Pseudomonas aeruginosa (ATCC 15442) biofilm; experiment: MBEC biofilm eradication test (Calgary biofilm device); conditions: one-hour biocide contact time; for MBEC (minimum biofilm eradication concentration): individual determinations
Text: Table 45 summarizes test results performed at MBEC Biofilm Technologies, Inc., Calgary, Canada on the effectiveness of various biocides on biofilm removal. The test procedure, developed at the University of Calgary, utilizes a device which allows the growth of 96 identical biofilms under carefully controlled conditions. The device consists of a two-part vessel comprised of an upper plate containing 96 pegs that seals against a bottom plate. The bottom plate can consist of either a trough (for biofilm growth) or a standard 96-well plate (for biocide challenge). The biofilms develop on the 96 pegs. The device has been used as a general method for evaluating the efficacy of antibiotics and biocides towards biofilms. See in this connection H. Ceri, et al., “The MBEC Test: A New In Vitro Assay Allowing Rapid Screening for Antibiotic Sensitivity of Biofilm”, Proceedings of the ASM, 1998, 89, 525; Ceri, et al., “Antifungal and Biocide Susceptibility testing of Candida Biofilms using the MBEC Device”, Proceedings of the Interscience Conference on Antimicrobial Agents and Chemotherapy, 1998, 38, 495; and H. Ceri, et al., “The Calgary Biofilm Device: A New Technology for the Rapid Determination of Antibiotic Susceptibility of Bacterial Biofilms”, Journal of Clinical Microbiology, 1999, 37, 1771-1776.
Six biocide systems were evaluated using the above test procedure and test equipment. Five of these systems were oxidizing biocides, viz., chlorine (from NaOCl), halogen (from NaOCl+NaBr), halogen (from BCDMH), bromine (from DBDMH), and chlorine (from trichloroisocyanuric acid), all expressed as bromine as Br2 in mg/L, so that all test results were placed on the same basis. The sixth biocide was glutaraldehyde, a non-oxidizing biocide.
These biocide systems were used to challenge biofilms of Pseudomonas aeruginosa (ATCC 15442). This is a Gram (−) bacterium which is ubiquitous in microbiological slimes found in many water systems. See in this connection J. W. Costerton and H. Anwar, “Pseudomonas aeruginosa: The Microbe and Pathogen”, in Pseudomonas aeruginosa Infections and Treatment, A. L. Baltch and R. P. Smith editors, Marcel Dekker publishers, New York, 1994. In the field of poultry processing, S. Notermans, J. Dormans, and G. C. Mead, Biofouling, 1991, Vol. 5, pages 21-36, report observation of biofilms in poultry slaughter houses by use of scanning electron microscopy.
In Table 45 the MBEC (minimum biofilm eradication concentration) results presented are for the one-hour biocide contact time used in the test. The values given for the halogen containing biocides are expressed in terms of mg/L of bromine as Br2. The data on the glutaraldehyde is in terms of mg/L as active ingredient. […] In fact, only slightly more than one-half as much bromine from DBDMH was required to remove the biofilm as compared to the total halogen, expressed as Br2, that was required from BCDMH.

[2] = tested on: Escherichia coli field strain; experiment: Carcass total bacteria count after 1.5-hour chill tank immersion (Example 1); conditions: average of 10 birds; for Mean Bacteria Reduction (carcass): 1.5 h chill tank
Text: (§1) The effect of these treatments on the residual chill tank water was also investigated. Carcasses were first immersed in a warm bath containing 10^4 E coli per mL of liquid. Carcasses were then immersed in chill tanks containing normal organic fluids (blood, fat, skin, and meat particles) and containing one of the respective microbiocidal compositions under test. Total bacteria count of whole bird (both inside and outside) was used to determine efficacy of various microbiocidal compositions. […] Albemarle Corporation). The trial events and experimental design used were as follows: • a) For all treatments a total of 190 birds were processed in a normal fashion. […] This was best done by grasping the broiler carcass with one hand and the closed top of the bag with the other then rocking with a reciprocal motion in a 18-24 inch arc, assuring that all carcass surfaces (interior and exterior) were rinsed. • h) The rinse solutions were then transferred from each stomacher bag into individual sample bottles, taking care to ensure that the information on the date of collection, time of collection, and treatment group matched that of the sample. Each bottle was sealed with parafilm and stored in a refrigerator. • i) Dilution of the fluids was conducted such that a 25-250 count was present on the MacConkey plate. […] Poultry carcass microbial contamination measurement was achieved by the complete washing of the entire carcass surface (inside and outside) using suitable sterile stripping solution followed by collection and plating of the stripping solution for bacterial enumeration.

[3] = tested on: Escherichia coli field strain; experiment: Chill water bacteria count (Example 1); conditions: bacteria count per mL of treatment water
Text: as §1

[4] = 50 ppm Cl2 equivalent (Aquatize: 50 ppm sodium chlorite)
[5] = 100 ppm Cl2 equivalent (Aquatize: 100 ppm sodium chlorite)
[6] = 150 ppm Cl2 equivalent (Aquatize: 150 ppm sodium chlorite)

## O=CCCCC=O [Glutaraldehyde, glutaraldehyde]
[1]
  MBEC, avg.: 50 mg/L as active ingredient
  MBEC (minimum biofilm eradication concentration): 50, 50 mg/L as active ingredient

## [Na+].[O-]Cl [NaOCl]
[1]
  MBEC, avg.: 3.8 mg/L of bromine as Br2
  MBEC (minimum biofilm eradication concentration): 5.0 mg/L of bromine as Br2 and 2.5 mg/L of bromine as Br2

## [Br-].[Na+] [Sodium bromide, sodium bromide]
[2]; 50 ppm Cl2 equivalent (Aquatize: 50 ppm sodium chlorite), control carcass 2.67 × 10^5 total count
  Mean Bacteria Reduction (carcass): 92
[2]; [4]
  Mean Bacteria Reduction Count (carcass): 92
  Percent Bacteria Reduction From Control (carcass): 0.034%
[2]; [5]
  Mean Bacteria Reduction (carcass): 6.54 × 10^2
  Mean Bacteria Reduction Count (carcass): 654
  Percent Bacteria Reduction From Control (carcass): 0.245%
[2]; [6]
  Mean Bacteria Reduction (carcass): 1.73 × 10^3
  Mean Bacteria Reduction Count (carcass): 1,730
  Percent Bacteria Reduction From Control (carcass): 0.648%
[3]; 50 ppm Cl2 equivalent (Aquatize: 50 ppm sodium chlorite), negative control 5.11 × 10^3
  Chill Water Bacteria Count (Mean Bacteria Reduction): 4.67 × 10^3 per mL
[3]; [5]
  Chill Water Bacteria Count (Mean Bacteria Reduction): 3.49 × 10^3 per mL
[3]; [6]
  Chill Water Bacteria Count (Mean Bacteria Reduction): 2.23 × 10^3 per mL

## O=c1n(Cl)c(=O)n(Cl)c(=O)n1Cl [Trichloroisocyanuric acid, trichloroisocyanuric acid]
[1]
  MBEC, avg.: 2.0 mg/L of bromine as Br2
  MBEC (minimum biofilm eradication concentration): 2.6 mg/L of bromine as Br2 and 1.3 mg/L of bromine as Br2
